# Test results taken from patent US20110136666A1, “CHEMICAL COMPOUNDS” (SYNGENTA CROP PROTECTION, INC., priority 2008, published 2011).
# Test system: Alopecurus myosuroides (ALOMY)
# Assay: Pre-emergence biological efficacy, glasshouse pot test
# Type: in vivo
# Details: 312 h, 250 g/ha, after 13 days, 100=total damage, 0=no damage, read-out: Percentage damage caused to weed species ALOMY
# Protocol: (§1) Seeds of Alopecurus myosuroides (ALOMY), Setaria faberi (SETFA), Echinochloa crus-galli (ECHCG), Solanum nigrum (SOLNI), Amaranthus retroflexus (AMARE) and Ipomea hederaceae (IPOHE) were sown in standard soil in pots. After cultivation for one day under controlled conditions in a glasshouse (at 24/16° C., day/night; 14 hours light; 65% humidity), the plants were sprayed with an aqueous spray solution derived from the formulation of the technical active ingredient in acetone/water (50:50) solution containing 0.5% Tween 20 (polyoxyethylene sorbitan monolaurate, CAS RN 9005-64-5) to give a final dose of 250 or 1000 g/ha of test compound.
# (§2) The test plants were then grown under controlled conditions in the glasshouse (at 24/16° C., day/night; 14 hours light; 65% humidity) and watered twice daily. After 13 days the test was evaluated (100=total damage to plant; 0=no damage to plant).
row,Compound,pest or weed control at 250 g/ha
1,"COC(=O)c1nc(-c2cc3cc(C)ccc3s2)nc(N)c1Cl [Compound 2-55, 4-Amino-5-chloro-6-methoxycarbonyl-2-(5-methylbenzothiophen-2-yl)-pyrimidine]",0%
2,"COC(=O)c1nc(-c2c(C)n[nH]c2C)nc(N)c1Cl [Compound 2-72, 4-Amino-5-chloro-2-(3,5-dimethylpyrazol-4-yl)-6-methoxycarbonyl pyrimidine]",0%

# Test system: Amaranthus retroflexus (AMARE)
# Assay: as above
# Type: in vivo
# Details: 312 h, 250 g/ha, after 13 days, 100=total damage, 0=no damage, read-out: Percentage damage caused to weed species AMARE
# Protocol: as §1, §2
row,Compound,pest or weed control at 250 g/ha
1,"COC(=O)c1nc(-c2cc3cc(C)ccc3s2)nc(N)c1Cl [Compound 2-55, 4-Amino-5-chloro-6-methoxycarbonyl-2-(5-methylbenzothiophen-2-yl)-pyrimidine]",10%
2,"COC(=O)c1nc(-c2c(C)n[nH]c2C)nc(N)c1Cl [Compound 2-72, 4-Amino-5-chloro-2-(3,5-dimethylpyrazol-4-yl)-6-methoxycarbonyl pyrimidine]",0%

# Test system: Echinochloa crus-galli (ECHCG)
# Assay: as above
# Type: in vivo
# Details: 312 h, 250 g/ha, after 13 days, 100=total damage, 0=no damage, read-out: Percentage damage caused to weed species ECHCG
# Protocol: as §1, §2
row,Compound,pest or weed control at 250 g/ha
1,"COC(=O)c1nc(-c2cc3cc(C)ccc3s2)nc(N)c1Cl [Compound 2-55, 4-Amino-5-chloro-6-methoxycarbonyl-2-(5-methylbenzothiophen-2-yl)-pyrimidine]",0%
2,"COC(=O)c1nc(-c2c(C)n[nH]c2C)nc(N)c1Cl [Compound 2-72, 4-Amino-5-chloro-2-(3,5-dimethylpyrazol-4-yl)-6-methoxycarbonyl pyrimidine]",0%

# Test system: Ipomea hederaceae (IPOHE)
# Assay: as above
# Type: in vivo
# Details: Ipomoea hederacea, 312 h, 250 g/ha, after 13 days, 100=total damage, 0=no damage, read-out: Percentage damage caused to weed species IPOHE
# Protocol: as §1, §2
row,Compound,pest or weed control at 250 g/ha
1,"COC(=O)c1nc(-c2cc3cc(C)ccc3s2)nc(N)c1Cl [Compound 2-55, 4-Amino-5-chloro-6-methoxycarbonyl-2-(5-methylbenzothiophen-2-yl)-pyrimidine]",10%
2,"COC(=O)c1nc(-c2c(C)n[nH]c2C)nc(N)c1Cl [Compound 2-72, 4-Amino-5-chloro-2-(3,5-dimethylpyrazol-4-yl)-6-methoxycarbonyl pyrimidine]",0%

# Test system: Setaria faberi (SETFA)
# Assay: as above
# Type: in vivo
# Details: 312 h, 250 g/ha, after 13 days, 100=total damage, 0=no damage, read-out: Percentage damage caused to weed species SETFA
# Protocol: as §1, §2
row,Compound,pest or weed control at 250 g/ha
1,"COC(=O)c1nc(-c2cc3cc(C)ccc3s2)nc(N)c1Cl [Compound 2-55, 4-Amino-5-chloro-6-methoxycarbonyl-2-(5-methylbenzothiophen-2-yl)-pyrimidine]",0%
2,"COC(=O)c1nc(-c2c(C)n[nH]c2C)nc(N)c1Cl [Compound 2-72, 4-Amino-5-chloro-2-(3,5-dimethylpyrazol-4-yl)-6-methoxycarbonyl pyrimidine]",0%

# Test system: Solanum nigrum (SOLNI)
# Assay: as above
# Type: in vivo
# Details: 312 h, 250 g/ha, after 13 days, 100=total damage, 0=no damage, read-out: Percentage damage caused to weed species SOLNI
# Protocol: as §1, §2
row,Compound,pest or weed control at 250 g/ha
1,"COC(=O)c1nc(-c2cc3cc(C)ccc3s2)nc(N)c1Cl [Compound 2-55, 4-Amino-5-chloro-6-methoxycarbonyl-2-(5-methylbenzothiophen-2-yl)-pyrimidine]",0%
2,"COC(=O)c1nc(-c2c(C)n[nH]c2C)nc(N)c1Cl [Compound 2-72, 4-Amino-5-chloro-2-(3,5-dimethylpyrazol-4-yl)-6-methoxycarbonyl pyrimidine]",0%

# Test system: Alopecurus myosuroides (ALOMY)
# Assay: Post-emergence biological efficacy, glasshouse pot test
# Type: in vivo
# Details: 312 h, 250 g/ha, after 13 days, 100=total damage, 0=no damage, read-out: Percentage damage caused to weed species ALOMY
# Protocol: as §1, with “8 days” for “one day”
# (§3) The test plants were then grown on under controlled conditions in a glasshouse (at 24/16° C., day/night; 14 hours light; 65% humidity) and watered twice daily. After 13 days the test was evaluated (100=total damage to plant; 0=no damage to plant).
row,Compound,pest or weed control at 250 g/ha
1,"COC(=O)c1nc(-c2cc3cc(C)ccc3s2)nc(N)c1Cl [Compound 2-55, 4-Amino-5-chloro-6-methoxycarbonyl-2-(5-methylbenzothiophen-2-yl)-pyrimidine]",10%
2,"COC(=O)c1nc(-c2c(C)n[nH]c2C)nc(N)c1Cl [Compound 2-72, 4-Amino-5-chloro-2-(3,5-dimethylpyrazol-4-yl)-6-methoxycarbonyl pyrimidine]",0%

# Test system: Amaranthus retroflexus (AMARE)
# Assay: as above
# Type: in vivo
# Details: 312 h, 250 g/ha, after 13 days, 100=total damage, 0=no damage, read-out: Percentage damage caused to weed species AMARE
# Protocol: as §1, with “8 days” for “one day”
# as §3
row,Compound,pest or weed control at 250 g/ha
1,"COC(=O)c1nc(-c2cc3cc(C)ccc3s2)nc(N)c1Cl [Compound 2-55, 4-Amino-5-chloro-6-methoxycarbonyl-2-(5-methylbenzothiophen-2-yl)-pyrimidine]",70%
2,"COC(=O)c1nc(-c2c(C)n[nH]c2C)nc(N)c1Cl [Compound 2-72, 4-Amino-5-chloro-2-(3,5-dimethylpyrazol-4-yl)-6-methoxycarbonyl pyrimidine]",0%

# Test system: Echinochloa crus-galli (ECHCG)
# Assay: as above
# Type: in vivo
# Details: 312 h, 250 g/ha, after 13 days, 100=total damage, 0=no damage, read-out: Percentage damage caused to weed species ECHCG
# Protocol: as §1, with “8 days” for “one day”
# as §3
row,Compound,pest or weed control at 250 g/ha
1,"COC(=O)c1nc(-c2cc3cc(C)ccc3s2)nc(N)c1Cl [Compound 2-55, 4-Amino-5-chloro-6-methoxycarbonyl-2-(5-methylbenzothiophen-2-yl)-pyrimidine]",0%
2,"COC(=O)c1nc(-c2c(C)n[nH]c2C)nc(N)c1Cl [Compound 2-72, 4-Amino-5-chloro-2-(3,5-dimethylpyrazol-4-yl)-6-methoxycarbonyl pyrimidine]",0%

# Test system: Ipomea hederaceae (IPOHE)
# Assay: as above
# Type: in vivo
# Details: Ipomoea hederacea, 312 h, 250 g/ha, after 13 days, 100=total damage, 0=no damage, read-out: Percentage damage caused to weed species IPONE
# Protocol: as §1, with “8 days” for “one day”
# as §3
row,Compound,pest or weed control at 250 g/ha
1,"COC(=O)c1nc(-c2cc3cc(C)ccc3s2)nc(N)c1Cl [Compound 2-55, 4-Amino-5-chloro-6-methoxycarbonyl-2-(5-methylbenzothiophen-2-yl)-pyrimidine]",40%
2,"COC(=O)c1nc(-c2c(C)n[nH]c2C)nc(N)c1Cl [Compound 2-72, 4-Amino-5-chloro-2-(3,5-dimethylpyrazol-4-yl)-6-methoxycarbonyl pyrimidine]",0%

# Test system: Setaria faberi (SETFA)
# Assay: as above
# Type: in vivo
# Details: 312 h, 250 g/ha, after 13 days, 100=total damage, 0=no damage, read-out: Percentage damage caused to weed species SETFA
# Protocol: as §1, with “8 days” for “one day”
# as §3
row,Compound,pest or weed control at 250 g/ha
1,"COC(=O)c1nc(-c2cc3cc(C)ccc3s2)nc(N)c1Cl [Compound 2-55, 4-Amino-5-chloro-6-methoxycarbonyl-2-(5-methylbenzothiophen-2-yl)-pyrimidine]",0%
2,"COC(=O)c1nc(-c2c(C)n[nH]c2C)nc(N)c1Cl [Compound 2-72, 4-Amino-5-chloro-2-(3,5-dimethylpyrazol-4-yl)-6-methoxycarbonyl pyrimidine]",0%

# Test system: Solanum nigrum (SOLNI)
# Assay: as above
# Type: in vivo
# Details: 312 h, 250 g/ha, after 13 days, 100=total damage, 0=no damage, read-out: Percentage damage caused to weed species SOLNI
# Protocol: as §1, with “8 days” for “one day”
# as §3
row,Compound,pest or weed control at 250 g/ha
1,"COC(=O)c1nc(-c2cc3cc(C)ccc3s2)nc(N)c1Cl [Compound 2-55, 4-Amino-5-chloro-6-methoxycarbonyl-2-(5-methylbenzothiophen-2-yl)-pyrimidine]",30%
2,"COC(=O)c1nc(-c2c(C)n[nH]c2C)nc(N)c1Cl [Compound 2-72, 4-Amino-5-chloro-2-(3,5-dimethylpyrazol-4-yl)-6-methoxycarbonyl pyrimidine]",0%
